Experimental data published in patent publication US11001561B2, “Pyrimidinone derivatives as SHP2 antagonists” (MERCK PATENT GMBH, priority 2019, dated 2021).

The molecules below were run against Full length SHP2 protein (Recombinant Human SHP-2) (Homo sapiens (Human), UniProt Q06124) (assay: SHP2 biochemical assay (DiFMUP substrate, activating peptide IRSI_2pY)). Conditions: SHP-2 biochemical assay IC50 (μM), activating peptide IRSI_2pY 140 nM, DiFMUP, 60 min.
Chain of Full length SHP2 protein (Recombinant Human SHP-2) (Q06124 2-593): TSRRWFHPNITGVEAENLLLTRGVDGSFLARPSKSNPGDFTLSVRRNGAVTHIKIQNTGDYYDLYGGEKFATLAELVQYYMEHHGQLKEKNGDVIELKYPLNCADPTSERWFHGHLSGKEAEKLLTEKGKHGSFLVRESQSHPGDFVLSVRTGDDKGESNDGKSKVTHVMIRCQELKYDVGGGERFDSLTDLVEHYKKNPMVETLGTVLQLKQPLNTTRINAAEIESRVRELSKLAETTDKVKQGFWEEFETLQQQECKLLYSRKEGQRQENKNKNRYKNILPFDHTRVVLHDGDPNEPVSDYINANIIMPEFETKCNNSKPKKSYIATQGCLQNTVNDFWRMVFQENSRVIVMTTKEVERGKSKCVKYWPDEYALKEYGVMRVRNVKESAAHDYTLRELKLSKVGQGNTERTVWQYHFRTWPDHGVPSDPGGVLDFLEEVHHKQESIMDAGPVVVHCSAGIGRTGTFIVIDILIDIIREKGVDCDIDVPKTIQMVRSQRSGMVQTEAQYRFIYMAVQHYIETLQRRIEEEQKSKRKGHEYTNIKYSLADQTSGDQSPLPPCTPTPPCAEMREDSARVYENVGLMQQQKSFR
Procedure: The inhibition of SHP2 by compounds of the invention was monitored using the surrogate substrate DiFMUP after protein activation by a peptide bearing two appropriately spaced phosphotyrosine. […] The generation of the DiFMU product by activated SHP2 was monitored through Fluorescence measurement with a PerkinElmer Envision reader. The inhibitor dose response curves were analyzed with Genedata Screener.

Structure (SMILES) | IC50
Cc1c(N2CCC3(CC2)Cc2ccccc2[C@@H]3N)nc(C)n(-c2cccc(Cl)c2Cl)c1=O (atropisomer, axis not shown) [Compound 74d, (3P)-6-[(1R)-1-amino-1,3-dihydrospiro[indene-2,4′-piperidin]-1′-yl]-3-(2,3-dichlorophenyl)-2,5-dimethyl-3,4-dihydropyrimidin-4-one] | > 10 µM
Cc1nc(C2=CC[C@@](C)(N)CC2)cc(=O)n1-c1cccc(Cl)c1Cl (racemic) [Compound 6a, (+/−)-(3M)-6-[(4S)-4-amino-4-methylcyclohex-1-en-1-yl]-3-(2,3-dichlorophenyl)-2-methyl-3,4-dihydropyrimidin-4-one] | 19 µM
Cc1nc(C2=CC[C@@](C)(N)CC2)cc(=O)n1-c1cccc(Cl)c1Cl (racemic) [Compound 6b, (+/−)-(3P)-6-[(4S)-4-amino-4-methylcyclohex-1-en-1-yl]-3-(2,3-dichlorophenyl)-2-methyl-3,4-dihydropyrimidin-4-one] | > 10 µM
Cc1nc(N2C[C@@H]3CCC[C@]3(CN)C2)c(C(F)(F)F)c(=O)n1-c1cccc(Cl)c1Cl (racemic) [Compound 25, (+/−)-6-[(3aS,6aR)-3a-(aminomethyl)-octahydrocyclopenta[c]pyrrol-2-yl]-3-(2,3-dichlorophenyl)-2-methyl-5-(trifluoromethyl)-3,4-dihydropyrimidin-4-one] | 14 µM
Cc1nc(N2CC[C@@H](N)[C@@H](O)C2)cc(=O)n1-c1cccc(Cl)c1Cl (racemic) [Compound 30, (+/−)-6-[(3S,4R)-4-amino-3-hydroxypiperidin-1-yl]-3-(2,3-dichlorophenyl)-2-methyl-3,4-dihydropyrimidin-4-one] | 13 µM
Cc1c(N2C[C@H]3COC[C@@]3(CN)C2)nc(C)n(-c2cccc(Cl)c2Cl)c1=O (racemic) [Compound 34, (+/−)-6-[(3aS,6aS)-3a-(aminomethyl)-hexahydro-1H-furo[3,4-c]pyrrol-5-yl]-3-(2,3-dichlorophenyl)-2,5-dimethyl-3,4-dihydropyrimidin-4-one] | 1.7 µM
Cc1nc(N2CCC(C)([C@H](O)CN)CC2)cc(=O)n1-c1cccc(Cl)c1Cl (racemic) [Compound 57a, (+/−)-(3M)-6-{4-[(1S)-2-amino-1-hydroxyethyl]-4-methylpiperidin-1-yl}-3-(2,3-dichlorophenyl)-2-methyl-3,4-dihydropyrimidin-4-one] | > 10 µM
Cc1nc(N2CCC(C)([C@H](O)CN)CC2)cc(=O)n1-c1cccc(Cl)c1Cl (racemic) [Compound 57b, (+/−)-(3P)-6-{4-[(1S)-2-amino-1-hydroxyethyl]-4-methylpiperidin-1-yl}-3-(2,3-dichlorophenyl)-2-methyl-3,4-dihydropyrimidin-4-one] | 3 µM
Cc1nc(N2CCC[C@](N)(CC(F)F)CC2)cc(=O)n1-c1cccc(Cl)c1Cl (racemic) [Compound 58a, (+/−)-(3M)-6-4-[(1R)-4-amino-4-(2,2-difluoroethyl)-azepan-1-yl]-3-(2,3-dichlorophenyl)-2-methyl-3,4-dihydropyrimidin-4-one] | > 10 µM
Cc1nc(N2CCC[C@](N)(CC(F)F)CC2)cc(=O)n1-c1cccc(Cl)c1Cl (racemic) [Compound 58b, (+/−)-(3P)-6-4-[(1R)-4-amino-4-(2,2-difluoroethyl)-azepan-1-yl]-3-(2,3-dichlorophenyl)-2-methyl-3,4-dihydropyrimidin-4-one] | 1.3 µM
Cc1nc(N2CCC(C)(N3CC[C@H](O)C3)CC2)cc(=O)n1-c1cccc(Cl)c1Cl (racemic) [Compound 72b, (+/−)-(3M)-3-(2,3-dichlorophenyl)-6-{4-[(3R)-3-hydroxy-pyrrolidin-1-yl]-4-methylpiperidin-1-yl}-2-methyl-3,4-dihydropyrimidin-4-one] | 6.4 µM
Cc1nc(N2CCC3(CC2)CO[C@@H](C)[C@H]3N)cc(=O)n1-c1c(F)ccc(Cl)c1Cl (single isomer, unassigned) [Compound 32b] | 1.9 µM
Cc1nc(N2CCC3(CC2)CO[C@@H](C)[C@H]3N)nc(=O)n1-c1cccc(Cl)c1Cl (single isomer, unassigned) [Compound 37b] | > 10 µM
[2H]C([2H])([2H])c1c(N2CCC3(CC2)CO[C@@H](C)[C@H]3N)nc(C)n(-c2cccc(Cl)c2Cl)c1=O (single isomer, unassigned) [Compound 63a] | 6 µM
Cc1nc(N(C)[C@H]2CC[C@](C)(N)CC2)cc(=O)n1-c1cccc(Cl)c1Cl (single isomer, unassigned) [Compound 71a, 3-(2,3-dichlorophenyl)-2-methyl-6-{methyl[(trans)-4-amino-4-methylcyclohexyl]amino}-3,4-dihydropyrimidin-4-one] | > 50 µM
Cc1nc(N(C)[C@H]2CC[C@@](C)(N)CC2)cc(=O)n1-c1cccc(Cl)c1Cl (single isomer, unassigned) [Compound 71b, 3-(2,3-dichlorophenyl)-2-methyl-6-{methyl[(cis)-4-amino-4-methylcyclohexyl]amino}-3,4-dihydropyrimidin-4-one] | 20 µM
Cc1nc(N2CCC(C)(N3CC[C@H](O)C3)CC2)cc(=O)n1-c1cccc(Cl)c1Cl (single isomer, unassigned) [Compound 72a] | > 10 µM
COc1c(N2CCC3(CC2)CO[C@@H](C)[C@H]3N)nc(C)n(-c2cccc(Cl)c2Cl)c1=O (single isomer, unassigned) [Compound 73b] | 0.91 µM
Cc1c(N2CCC3(CC2)Oc2ccccc2[C@H]3N)nc(C)n(-c2cccc(Cl)c2Cl)c1=O (single isomer, unassigned) [Compound 81a] | 0.47 µM

Same assay, conditions: activating peptide IRSI_2pY 140 nM, DiFMUP, 60 min; read-out: SHP-2 biochemical assay IC50

IC50 | Structure (SMILES)
> 10 µM | Cc1nc(N2CCC3(CC2)CO[C@@H](C)[C@H]3N)c(C(C)C)c(=O)n1-c1cccc(Cl)c1Cl (atropisomer, axis not shown) [Compound 49a, (3P)-6-[(3S,4S)-4-amino-3-methyl-2-oxa-8-azaspiro[4.5]decan-8-yl]-3-(2,3-dichlorophenyl)-2-methyl-5-(propan-2-yl)-3,4-dihydropyrimidin-4-one]
4 µM | Cc1nc(N2C[C@H]3COCC[C@@]3(CN)C2)cc(=O)n1-c1cccc(Cl)c1Cl (racemic) [Compound 19, (+/−)-6-[(3aS,7aR)-7a-(aminomethyl)-octahydropyrano[3,4-c]pyrrol-2-yl]-3-(2,3-dichlorophenyl)-2-methyl-3,4-dihydropyrimidin-4-one]
> 10 µM | Cc1nc(N2CCC(C)(CN)CC2)cc(=O)n1-c1c(F)ccc(Cl)c1Cl (single isomer, unassigned) [Compound 33a, (3P)-6-[4-(aminomethyl)-4-methylpiperidin-1-yl]-3-(2,3-dichloro-6-fluorophenyl)-2-methyl-3,4-dihydropyrimidin-4-one]
5.7 µM | Cc1nc(N2CCC(C)(CN)CC2)cc(=O)n1-c1c(F)ccc(Cl)c1Cl (single isomer, unassigned) [Compound 33b, (3M)-6-[4-(aminomethyl)-4-methylpiperidin-1-yl]-3-(2,3-dichloro-6-fluorophenyl)-2-methyl-3,4-dihydropyrimidin-4-one]
0.27 µM | Cc1nc(N2CCC3(CC2)Cc2ccccc2[C@H]3N)cc(=O)n1-c1cccc(Cl)c1Cl (single isomer, unassigned) [Compound 119a]
8.6 µM | CSc1nc(N2CCC(C)(N)CC2)cc(=O)n1-c1cccc(Cl)c1Cl [Compound 1, 6-(4-amino-4-methylpiperidin-1-yl)-3-(2,3-dichlorophenyl)-2-(methylsulfanyl)-3,4-dihydropyrimidin-4-one]
0.26 µM | Cc1nc(N2CCC(C)(CN)CC2)cc(=O)n1-c1cccc(Cl)c1Cl [Compound 4, 6-[4-(aminomethyl)-4-methylpiperidin-1-yl]-3-(2,3-dichlorophenyl)-2-methyl-3,4-dihydropyrimidin-4-one]
4.8 µM | Cc1nc(N2CCC3(CC2)CO[C@@H](C)[C@H]3N)cc(=O)n1-c1ccccc1 [Compound 7, 6-[(3S,4S)-4-amino-3-methyl-2-oxa-8-azaspiro[4.5]decan-8-yl]-2-methyl-3-phenyl-3,4-dihydropyrimidin-4-one]
1.1 µM | Nc1nc(N2CCC3(CC2)CC(F)(F)C[C@H]3N)cc(=O)n1-c1cccc(Cl)c1Cl [Compound 8, 2-amino-6-[(1R)-1-amino-3,3-difluoro-8-azaspiro[4.5]decan-8-yl]-3-(2,3-dichlorophenyl)-3,4-dihydropyrimidin-4-one]
16 µM | Cc1nc(C2=CCC(C)(CN)CC2)cc(=O)n1-c1cccc(Cl)c1Cl (stereo not shown) [Compound 9, 6-[4-(aminomethyl)-4-methylcyclohex-1-en-1-yl]-3-(2,3-dichlorophenyl)-2-methyl-3,4-dihydropyrimidin-4-one]

Structure (SMILES) | IC50
Cc1c(N2CCC3(CC2)CO[C@@H](C)[C@H]3N)nc(C)n(-c2cccc(Cl)c2Cl)c1=O (single isomer, unassigned) [Compound 23a] | 3.4 µM
Cc1nc(N2CCC3(CC2)CO[C@@H](C)[C@H]3N)cc(=O)n1-c1c(F)ccc(Cl)c1Cl (single isomer, unassigned) [Compound 32a] | > 10 µM
Cc1nc(N2CCC3(CCC[C@H]3N)CC2)cc(=O)n1-c1cccc(Cl)c1Cl (single isomer, unassigned) [Compound 62a] | > 10 µM
COc1c(N2CCC3(CC2)CO[C@@H](C)[C@H]3N)nc(C)n(-c2cccc(Cl)c2Cl)c1=O (single isomer, unassigned) [Compound 73a] | > 10 µM
Cc1c(N2CCC3(CCC[C@@H]3N)CC2)nc(N)n(-c2cccc(Cl)c2Cl)c1=O (single isomer, unassigned) [Compound 78a] | > 50 µM
Cc1c(N2CCC3(CCC[C@H]3N)CC2)nc(N)n(-c2cccc(Cl)c2Cl)c1=O (single isomer, unassigned) [Compound 78b] | > 10 µM
Cc1c(N2CCC3(CC2)Oc2cnccc2C3N)nc(C)n(-c2cccc(Cl)c2Cl)c1=O (single isomer, unassigned) [Compound 80c] | 0.005 µM
Cc1c(N2CCC3(CC2)Oc2cnccc2[C@@H]3N)nc(C)n(-c2cccc(Cl)c2Cl)c1=O (single isomer, unassigned) [Compound 80d] | 1.4 µM
